Data as given in patent US20230085307A1, “PYRIDAZINONE COMPOUND AND HERBICIDE” (NISSAN CHEMICAL CORPORATION, priority 2019, published 2023).

Legend:
oval-leafed pondweed = experiment: Test Example 1: herbicidal activity, application before weed generation under submerged conditions (Table 16, symbol C); type: in vivo, oval-leafed pondweed (Monochoria vaginalis); conditions: amount of applied herbicide 320 g/ha
Outline: (§1)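 Emulsion formulation, water-diluted to set dose, was put onto the flooded surface (4 cm depth, alluvial soil) the same day weeds were sown and 2.5-leaf rice transplanted. After 3 weeks at 25-30 °C under glass, each species was rated 0 (≤5% kill) to 5 (≥90% kill).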

barnyard grass [1] = experiment: Test Example 3: herbicidal effect by foliage application, Wagner pot (Table 18, symbol H); type: in vivo, barnyard grass (Echinochloa crus-galli); conditions: for herbicidal effect on H: barnyard grass: amount of applied herbicide 320 g/ha
Outline: (§2)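 Plants were sown in alluvial soil held under 0.1–0.5 cm standing water and grown 14 days in a greenhouse at 25–30 °C. An emulsifiable formulation, water-diluted to the set dose, was then sprayed onto the foliage, and effects were scored three weeks later using previously defined criteria.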

rice flat sedge = experiment: Test Example 3: herbicidal effect by foliage application, Wagner pot (Table 18, symbol E); type: in vivo, rice flat sedge (Cyperus iria); conditions: for herbicidal effect on E: rice flat sedge: amount of applied herbicide 320 g/ha
Outline: as §2

windgrass = experiment: Test Example 5: herbicidal effect by foliage application, plastic box (Table 20, symbol L); type: in vivo, windgrass (Apera spica-venti); conditions: 320 g/ha; for L: windgrass, herbicidal effect grade: foliage application, three weeks after application
Outline: (§3)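 Foliar spray test: emulsion formulation diluted in water to a set application rate, sprayed onto 14-day-old plants raised in diluvial soil at 25° C to 30° C under glass. Both herbicidal effect and crop effect rated visually three weeks later.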

green foxtail = experiment: Test Example 5: herbicidal effect by foliage application, plastic box (Table 20, symbol G); type: in vivo, green foxtail (Setaria viridis); conditions: 320 g/ha; for G: green foxtail, herbicidal effect grade: foliage application, three weeks after application
Outline: as §3

barnyard grass [2] = experiment: Test Example 5: herbicidal effect by foliage application, plastic box (Table 20, symbol H); type: in vivo, barnyard grass (Echinochloa crus-galli); conditions: 320 g/ha; for H: barnyard grass, herbicidal effect grade: foliage application, three weeks after application
Outline: as §3

lambsquarters = experiment: Test Example 5: herbicidal effect by foliage application, plastic box (Table 20, symbol O); type: in vivo, lambsquarters (Chenopodium album); conditions: 320 g/ha; for O: lambsquarters, herbicidal effect grade: foliage application, three weeks after application
Outline: as §3

wild oat = experiment: Test Example 5: herbicidal effect by foliage application, plastic box (Table 20, symbol I); type: in vivo, wild oat (Avena fatua); conditions: 320 g/ha; for I: wild oat, herbicidal effect grade: foliage application, three weeks after application
Outline: as §3

redroot pigweed = experiment: Test Example 5: herbicidal effect by foliage application, plastic box (Table 20, symbol N); type: in vivo, redroot pigweed (Amaranthus retroflexus); conditions: 320 g/ha; for N: redroot pigweed, herbicidal effect grade: foliage application, three weeks after application
Outline: as §3

Chinese sprangletop = experiment: Test Example 3: herbicidal effect by foliage application, Wagner pot (Table 18, symbol D); type: in vivo, chinese sprangletop (Leptochloa chinensis); conditions: for herbicidal effect on D: Chinese sprangletop: amount of applied herbicide 320 g/ha
Outline: as §2

late watergrass = experiment: Test Example 1: herbicidal activity, application before weed generation under submerged conditions (Table 16, symbol A); type: in vivo, late watergrass (Echinochloa oryzicola); conditions: amount of applied herbicide 320 g/ha
Outline: as §1

velvetleaf = experiment: Test Example 5: herbicidal effect by foliage application, plastic box (Table 20, symbol M); type: in vivo, velvetleaf (Abutilon theophrasti); conditions: 320 g/ha; for M: velvetleaf, herbicidal effect grade: foliage application, three weeks after application
Outline: as §3

persian speedwell = experiment: Test Example 5: herbicidal effect by foliage application, plastic box (Table 20, symbol R); type: in vivo, Persian speedwell (Veronica persica); conditions: 320 g/ha; for R: persian speedwell, herbicidal effect grade: foliage application, three weeks after application
Outline: as §3

Japanese bulrush = experiment: Test Example 1: herbicidal activity, application before weed generation under submerged conditions (Table 16, symbol B); type: in vivo, Japanese bulrush (Schoenoplectus juncoides); conditions: amount of applied herbicide 320 g/ha
Outline: as §1

chickweed = experiment: Test Example 5: herbicidal effect by foliage application, plastic box (Table 20, symbol P); type: in vivo, common chickweed (Stellaria media); conditions: 320 g/ha; for P: chickweed, herbicidal effect grade: foliage application, three weeks after application
Outline: as §3

southern crabgrass = experiment: Test Example 5: herbicidal effect by foliage application, plastic box (Table 20, symbol F); type: in vivo, southern crabgrass (Digitaria ciliaris); conditions: 320 g/ha; for F: southern crabgrass, herbicidal effect grade: foliage application, three weeks after application
Outline: as §3

Italian ryegrass = experiment: Test Example 5: herbicidal effect by foliage application, plastic box (Table 20, symbol K); type: in vivo, Italian ryegrass (Lolium multiflorum); conditions: 320 g/ha; for K: Italian ryegrass, herbicidal effect grade: foliage application, three weeks after application
Outline: as §3

blackgrass = experiment: Test Example 5: herbicidal effect by foliage application, plastic box (Table 20, symbol J); type: in vivo, blackgrass (Alopecurus myosuroides); conditions: 320 g/ha; for J: blackgrass, herbicidal effect grade: foliage application, three weeks after application
Outline: as §3

[3] = foliage application after 14-day growth, evaluated three weeks after application

| Structure (SMILES) | Herbicidal effect, C: oval-leafed pondweed (oval-leafed pondweed) | herbicidal effect on H: barnyard grass (barnyard grass [1]) | herbicidal effect on E: rice flat sedge (rice flat sedge) | L: windgrass, herbicidal effect grade (windgrass) | G: green foxtail, herbicidal effect grade (green foxtail) | H: barnyard grass, herbicidal effect grade (barnyard grass [2]) | O: lambsquarters, herbicidal effect grade (lambsquarters) | I: wild oat, herbicidal effect grade (wild oat) | N: redroot pigweed, herbicidal effect grade (redroot pigweed) | herbicidal effect on D: Chinese sprangletop (Chinese sprangletop) | Herbicidal effect, A: late watergrass (late watergrass) | M: velvetleaf, herbicidal effect grade (velvetleaf) | R: persian speedwell, herbicidal effect grade (persian speedwell) | Herbicidal effect, B: Japanese bulrush (Japanese bulrush) | P: chickweed, herbicidal effect grade (chickweed) | F: southern crabgrass, herbicidal effect grade (southern crabgrass) | K: Italian ryegrass, herbicidal effect grade (Italian ryegrass) | J: blackgrass, herbicidal effect grade (blackgrass) | other results |
| --- | --- | --- | --- | --- | --- | --- | --- | --- | --- | --- | --- | --- | --- | --- | --- | --- | --- | --- | --- |
| CSCCOc1ccc(-c2sc3ccc(F)cc3c2-c2c(OCCSC)c(C)nn(C)c2=O)cc1 [2-420] | 0 (Herbicidal rate of 5% or less (almost no effect)) | 5 (Herbicidal rate of 90% or more (almost completely withered)) | 4 (Herbicidal rate of 70% or more and less than 90%) | 4 (Herbicidal rate of 70% or more and less than 90%) | 4 (Herbicidal rate of 70% or more and less than 90%) | 5 (Herbicidal rate of 90% or more (almost completely withered)) | 5 (Herbicidal rate of 90% or more (almost completely withered)) | 0 (Herbicidal rate of 5% or less (almost no effect)) | 5 (Herbicidal rate of 90% or more (almost completely withered)) | 3 (Herbicidal rate of 40% or more and less than 70%) | 2 (Herbicidal rate of 20% or more and less than 40%) | 4 (Herbicidal rate of 70% or more and less than 90%) | 4 (Herbicidal rate of 70% or more and less than 90%) | 3 (Herbicidal rate of 40% or more and less than 70%) | 4 (Herbicidal rate of 70% or more and less than 90%) | 4 (Herbicidal rate of 70% or more and less than 90%) | 1 (Herbicidal rate of 5% or more and less than 20%) | 4 (Herbicidal rate of 70% or more and less than 90%) |  |
| COc1ccccc1-c1sc2cc(F)ccc2c1-c1c(OC(=O)N2CCOCC2)c(C)nn(C)c1=O [3-025] | 3 (Herbicidal rate of 40% or more and less than 70%) | 3 (Herbicidal rate of 40% or more and less than 70%) | 2 (Herbicidal rate of 20% or more and less than 40%) | 0 (Herbicidal rate of 5% or less (almost no effect)) | 0 (Herbicidal rate of 5% or less (almost no effect)) | 0 (Herbicidal rate of 5% or less (almost no effect)) | 0 (Herbicidal rate of 5% or less (almost no effect)) | 0 (Herbicidal rate of 5% or less (almost no effect)) | 1 (Herbicidal rate of 5% or more and less than 20%) | 0 (Herbicidal rate of 5% or less (almost no effect)) | 0 (Herbicidal rate of 5% or less (almost no effect)) | 0 (Herbicidal rate of 5% or less (almost no effect)) | 0 (Herbicidal rate of 5% or less (almost no effect)) | 0 (Herbicidal rate of 5% or less (almost no effect)) | 3 (Herbicidal rate of 40% or more and less than 70%) | 0 (Herbicidal rate of 5% or less (almost no effect)) | 0 (Herbicidal rate of 5% or less (almost no effect)) | 0 (Herbicidal rate of 5% or less (almost no effect)) |  |
| COc1ccccc1-c1sc2cc(F)ccc2c1-c1c(OC(=O)SC(C)(C)C)c(C)nn(C)c1=O [3-026] | 3 (Herbicidal rate of 40% or more and less than 70%) | 4 (Herbicidal rate of 70% or more and less than 90%) | 2 (Herbicidal rate of 20% or more and less than 40%) | 0 (Herbicidal rate of 5% or less (almost no effect)) | 0 (Herbicidal rate of 5% or less (almost no effect)) | 0 (Herbicidal rate of 5% or less (almost no effect)) | 1 (Herbicidal rate of 5% or more and less than 20%) | 0 (Herbicidal rate of 5% or less (almost no effect)) | 5 (Herbicidal rate of 90% or more (almost completely withered)) | 0 (Herbicidal rate of 5% or less (almost no effect)) | 2 (Herbicidal rate of 20% or more and less than 40%) | 0 (Herbicidal rate of 5% or less (almost no effect)) | 0 (Herbicidal rate of 5% or less (almost no effect)) | 0 (Herbicidal rate of 5% or less (almost no effect)) | 0 (Herbicidal rate of 5% or less (almost no effect)) | 0 (Herbicidal rate of 5% or less (almost no effect)) | 0 (Herbicidal rate of 5% or less (almost no effect)) | 0 (Herbicidal rate of 5% or less (almost no effect)) |  |
| COc1ccccc1-c1sc2cc(F)ccc2c1-c1c(OCC(=O)c2ccccc2)c(C)nn(C)c1=O [3-030] | 3 (Herbicidal rate of 40% or more and less than 70%) | 4 (Herbicidal rate of 70% or more and less than 90%) | 0 (Herbicidal rate of 5% or less (almost no effect)) | 0 (Herbicidal rate of 5% or less (almost no effect)) | 1 (Herbicidal rate of 5% or more and less than 20%) | 0 (Herbicidal rate of 5% or less (almost no effect)) | 1 (Herbicidal rate of 5% or more and less than 20%) | 0 (Herbicidal rate of 5% or less (almost no effect)) | 3 (Herbicidal rate of 40% or more and less than 70%) | 2 (Herbicidal rate of 20% or more and less than 40%) | 2 (Herbicidal rate of 20% or more and less than 40%) | 3 (Herbicidal rate of 40% or more and less than 70%) | 0 (Herbicidal rate of 5% or less (almost no effect)) | 0 (Herbicidal rate of 5% or less (almost no effect)) | 3 (Herbicidal rate of 40% or more and less than 70%) | 0 (Herbicidal rate of 5% or less (almost no effect)) | 0 (Herbicidal rate of 5% or less (almost no effect)) | 3 (Herbicidal rate of 40% or more and less than 70%) |  |
| COc1ccc2c(-c3c(OCC#N)c(C)nn(C)c3=O)c(-c3ccccc3OC)sc2c1 [3-153] | 3 (Herbicidal rate of 40% or more and less than 70%) |  |  |  |  |  |  |  |  |  | 3 (Herbicidal rate of 40% or more and less than 70%) |  |  | 3 (Herbicidal rate of 40% or more and less than 70%) |  |  |  |  | herbicidal effect on barnyard grass (H) (barnyard grass [1]; 320 g/ha): 5 (Herbicidal rate of 90% or more (almost completely withered)); herbicidal effect on rice flat sedge (E) (rice flat sedge; 320 g/ha): 0 (Herbicidal rate of 5% or less (almost no effect)); herbicidal effect on L: windgrass (evaluation grade 0-5) (windgrass; [3]): 4 (Herbicidal rate of 70% or more and less than 90%); herbicidal effect on G: green foxtail (evaluation grade 0-5) (green foxtail; [3]): 5 (Herbicidal rate of 90% or more (almost completely withered)); herbicidal effect on H: barnyard grass (evaluation grade 0-5) (barnyard grass [2]; [3]): 5 (Herbicidal rate of 90% or more (almost completely withered)); herbicidal effect on O: lambsquarters (evaluation grade 0-5) (lambsquarters; [3]): 4 (Herbicidal rate of 70% or more and less than 90%); herbicidal effect on I: wild oat (evaluation grade 0-5) (wild oat; [3]): 0 (Herbicidal rate of 5% or less (almost no effect)); herbicidal effect on N: redroot pigweed (evaluation grade 0-5) (redroot pigweed; [3]): 4 (Herbicidal rate of 70% or more and less than 90%); herbicidal effect on Chinese sprangletop (D) (Chinese sprangletop; 320 g/ha): 2 (Herbicidal rate of 20% or more and less than 40%); herbicidal effect on M: velvetleaf (evaluation grade 0-5) (velvetleaf; [3]): 5 (Herbicidal rate of 90% or more (almost completely withered)); herbicidal effect on R: persian speedwell (evaluation grade 0-5) (persian speedwell; [3]): 4 (Herbicidal rate of 70% or more and less than 90%); herbicidal effect on P: chickweed (evaluation grade 0-5) (chickweed; [3]): 5 (Herbicidal rate of 90% or more (almost completely withered)); herbicidal effect on F: southern crabgrass (evaluation grade 0-5) (southern crabgrass; [3]): 3 (Herbicidal rate of 40% or more and less than 70%); herbicidal effect on K: Italian ryegrass (evaluation grade 0-5) (Italian ryegrass; [3]): 0 (Herbicidal rate of 5% or less (almost no effect)); herbicidal effect on J: blackgrass (evaluation grade 0-5) (blackgrass; [3]): 3 (Herbicidal rate of 40% or more and less than 70%) |
